Laboratory results published in ChEMBL document CHEMBL1201862, “PubChem BioAssay data set” (2004).
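Following 48 hours of exposure in 96-well plates, responses at five concentrations were used to interpolate endpoints linearly. GI50 = concentration required for 50% inhibition of growth.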 Active and inactive are the calls of the source. Rule as the data show it: active = GI50 up to about 1.1 µM and inactive = higher.

Columns and labels:
Experiment in all cases: inhibition of tumour cell growth, NCI panel, 48 h
UACC-257 = test system: UACC-257
K562 = test system: K562
A498 = test system: A498
PC-3 = test system: PC-3
SNB-19 = test system: SNB-19
Hs-578T = test system: Hs-578T
MDA-MB-435 = test system: MDA-MB-435
NCI-H23 = test system: NCI-H23
OVCAR-3 = test system: OVCAR-3
DU-145 = test system: DU-145
A549 = test system: A549
HT-29 = test system: HT-29
OVCAR-4 = test system: OVCAR-4
NCI-H522 = test system: NCI-H522
IGROV-1 = test system: IGROV-1
NCI-H460 = test system: NCI-H460
UO-31 = test system: UO-31
COLO 205 = test system: COLO 205
HCC 2998 = test system: HCC 2998

Measured: GI50

O=c1cc(/C=C/c2ccc(O)c(O)c2)oc(/C=C/c2ccc(O)c(O)c2)c1
inactive: UACC-257 5.31 µM | K562 2.11 µM | A498 3.84 µM | PC-3 5.73 µM | SNB-19 3.82 µM | Hs-578T 4.09 µM | MDA-MB-435 1.43 µM | NCI-H23 4.57 µM | OVCAR-3 3.19 µM | DU-145 4.55 µM | A549 13.4 µM | HT-29 7.91 µM | OVCAR-4 3.78 µM | NCI-H522 1.24 µM | IGROV-1 4.17 µM | NCI-H460 5.02 µM | UO-31 4.66 µM | COLO 205 8.2 µM | HCC 2998 2.49 µM

Cn1c(N2CCCC2)c(C=O)c(=O)n(C)c1=O
inactive: UACC-257 > 100 µM | K562 > 100 µM | A498 > 100 µM | PC-3 > 100 µM | SNB-19 > 100 µM | Hs-578T 91.6 µM | MDA-MB-435 > 100 µM | NCI-H23 > 100 µM | OVCAR-3 > 100 µM | DU-145 > 100 µM | A549 > 100 µM | HT-29 > 100 µM | OVCAR-4 > 100 µM | NCI-H522 > 100 µM | IGROV-1 > 100 µM | NCI-H460 > 100 µM | UO-31 > 100 µM | COLO 205 > 100 µM | HCC 2998 > 100 µM

COc1ccc(/C=C/c2ccnc3ccccc23)c(OC)c1
inactive: UACC-257 > 10 µM | K562 3.54 µM | A498 7.87 µM | PC-3 8.38 µM | SNB-19 > 10 µM | Hs-578T 5.98 µM | MDA-MB-435 2.36 µM | OVCAR-3 > 10 µM | DU-145 > 10 µM | A549 > 10 µM | OVCAR-4 > 10 µM | NCI-H522 6.62 µM | IGROV-1 7.87 µM | NCI-H460 6.05 µM | UO-31 > 10 µM | COLO 205 4.34 µM | HCC 2998 6.82 µM

CC(C)(C)C(O)CC(O)(C(F)(F)F)C(F)(F)F (stereo unspecified)
inactive: UACC-257 > 100 µM | K562 > 100 µM | A498 > 100 µM | PC-3 > 100 µM | SNB-19 > 100 µM | Hs-578T > 100 µM | MDA-MB-435 > 100 µM | NCI-H23 > 100 µM | OVCAR-3 > 100 µM | DU-145 > 100 µM | A549 > 100 µM | HT-29 > 100 µM | OVCAR-4 > 100 µM | NCI-H522 > 100 µM | IGROV-1 > 100 µM | NCI-H460 > 100 µM | UO-31 > 100 µM | COLO 205 > 100 µM | HCC 2998 > 100 µM

Clc1cc(OCc2nn3c(Cc4ccccc4)nnc3s2)c(Cl)cc1OCc1nn2c(Cc3ccccc3)nnc2s1
inactive: UACC-257 > 100 µM | K562 4.93 µM | A498 30.5 µM | PC-3 78.3 µM | SNB-19 27.9 µM | Hs-578T 42.4 µM | MDA-MB-435 > 100 µM | NCI-H23 23.9 µM | OVCAR-3 33.3 µM | DU-145 47.1 µM | A549 94.8 µM | HT-29 76.6 µM | OVCAR-4 50 µM | NCI-H522 > 100 µM | IGROV-1 36 µM | NCI-H460 > 100 µM | UO-31 47.8 µM | COLO 205 > 100 µM | HCC 2998 > 100 µM

C=CCSC(C)=O
inactive: K562 > 100 µM | A498 > 100 µM | PC-3 > 100 µM | SNB-19 > 100 µM | Hs-578T > 100 µM | MDA-MB-435 > 100 µM | NCI-H23 > 100 µM | OVCAR-3 > 100 µM | DU-145 > 100 µM | A549 > 100 µM | HT-29 > 100 µM | OVCAR-4 > 100 µM | NCI-H522 98.9 µM | IGROV-1 > 100 µM | NCI-H460 > 100 µM | UO-31 > 100 µM | COLO 205 > 100 µM | HCC 2998 > 100 µM

N#Cc1c(N)c2c(c(-c3ccccc3)c1-c1ccccc1)C(=O)N(NC(=S)Nc1ccccc1)C2=O
inactive: UACC-257 > 100 µM | K562 88.7 µM | A498 43.3 µM | PC-3 30.5 µM | SNB-19 > 100 µM | Hs-578T 39.4 µM | MDA-MB-435 > 100 µM | OVCAR-3 64.4 µM | DU-145 > 100 µM | A549 64.1 µM | OVCAR-4 51.1 µM | NCI-H522 57.3 µM | IGROV-1 43 µM | NCI-H460 61.4 µM | UO-31 34.1 µM | COLO 205 75.2 µM | HCC 2998 > 100 µM

C=C(C)[C@@H]1CC[C@]2(C(=O)O)CC[C@]3(C)[C@H](CC[C@@H]4[C@@]5(C)CC[C@H](O)C(C)(C)[C@@H]5CC[C@]43C)[C@@H]12 [BETULINIC ACID]
inactive: UACC-257 6.03 µM | K562 5.13 µM | A498 6.08 µM | PC-3 7.48 µM | SNB-19 13.7 µM | Hs-578T 10.8 µM | MDA-MB-435 13.7 µM | NCI-H23 2.58 µM | OVCAR-3 2.61 µM | DU-145 9.71 µM | A549 4.88 µM | HT-29 8.24 µM | OVCAR-4 5.83 µM | NCI-H522 3.21 µM | IGROV-1 11.9 µM | NCI-H460 7.28 µM | UO-31 11 µM | COLO 205 4.63 µM | HCC 2998 6.31 µM

O=C1C[C@@H](c2ccc(O)cc2)[C@@]2(O1)C(=O)O[C@H]([C@@H](O)CO)[C@@H]2O
inactive: UACC-257 > 100 µM | K562 > 100 µM | A498 > 100 µM | PC-3 > 100 µM | SNB-19 > 100 µM | Hs-578T > 100 µM | MDA-MB-435 > 100 µM | NCI-H23 > 100 µM | OVCAR-3 > 100 µM | DU-145 > 100 µM | A549 > 100 µM | HT-29 > 100 µM | OVCAR-4 > 100 µM | NCI-H522 > 100 µM | IGROV-1 > 100 µM | NCI-H460 > 100 µM | UO-31 > 100 µM | COLO 205 > 100 µM | HCC 2998 > 100 µM

CC(C)(C)c1cc(C(=O)/C=C/c2ccc3c(c2)OCO3)cc(C(C)(C)C)c1O
inactive: UACC-257 2.95 µM | K562 5.24 µM | A498 10.3 µM | PC-3 3.99 µM | SNB-19 13.3 µM | Hs-578T 6.93 µM | MDA-MB-435 2.26 µM | NCI-H23 9.82 µM | OVCAR-3 4.53 µM | DU-145 5.06 µM | A549 9.64 µM | HT-29 5.73 µM | OVCAR-4 6.95 µM | NCI-H522 11.9 µM | IGROV-1 17.9 µM | NCI-H460 4.8 µM | UO-31 6.38 µM | COLO 205 5.61 µM | HCC 2998 1.75 µM

Brc1ccc2[nH]cc([C@@H]3CN[C@@H](c4c[nH]c5ccc(Br)cc45)CN3)c2c1
inactive: UACC-257 8.95 µM | K562 1.77 µM | A498 15 µM | PC-3 3.35 µM | SNB-19 11.4 µM | Hs-578T 6.95 µM | MDA-MB-435 3.9 µM | NCI-H23 9.95 µM | OVCAR-3 4.8 µM | DU-145 3.47 µM | A549 6.15 µM | HT-29 5.71 µM | OVCAR-4 4.76 µM | NCI-H522 2.21 µM | IGROV-1 3.41 µM | NCI-H460 7.57 µM | UO-31 2.42 µM | COLO 205 1.96 µM | HCC 2998 6.52 µM

N#Cc1nc(-c2ccccn2)oc1N
inactive: UACC-257 > 100 µM | K562 > 100 µM | A498 > 100 µM | PC-3 > 100 µM | SNB-19 > 100 µM | Hs-578T > 100 µM | MDA-MB-435 > 100 µM | NCI-H23 > 100 µM | OVCAR-3 > 100 µM | DU-145 > 100 µM | HT-29 > 100 µM | OVCAR-4 > 100 µM | NCI-H522 > 100 µM | IGROV-1 > 100 µM | NCI-H460 > 100 µM | UO-31 > 100 µM | COLO 205 > 100 µM | HCC 2998 > 100 µM

CC(=O)OCC1OC(SC2=NC(=O)/C(=C/c3ccccc3)S2)C(OC(C)=O)C(OC(C)=O)C1OC(C)=O (stereo unspecified)
inactive: UACC-257 34.2 µM | A498 29 µM | PC-3 40.1 µM | SNB-19 35.1 µM | Hs-578T 23.3 µM | MDA-MB-435 17 µM | NCI-H23 52.5 µM | OVCAR-3 19.7 µM | DU-145 95.1 µM | A549 44 µM | HT-29 37.8 µM | OVCAR-4 32 µM | NCI-H522 32.9 µM | IGROV-1 35.8 µM | NCI-H460 42.2 µM | UO-31 23.1 µM | COLO 205 45.6 µM | HCC 2998 28.8 µM

CCOC(=O)NC(Nc1ccc(C)cc1)(C(F)(F)F)C(F)(F)F
inactive: K562 > 100 µM | A498 > 100 µM | PC-3 > 100 µM | SNB-19 > 100 µM | Hs-578T > 100 µM | MDA-MB-435 > 100 µM | NCI-H23 > 100 µM | OVCAR-3 > 100 µM | DU-145 > 100 µM | A549 > 100 µM | HT-29 > 100 µM | OVCAR-4 > 100 µM | NCI-H522 > 100 µM | IGROV-1 > 100 µM | NCI-H460 > 100 µM | UO-31 > 100 µM | COLO 205 > 100 µM | HCC 2998 > 100 µM

Clc1cccc(/C=N/C23CC4CC(CC(C4)C2)C3)c1Cl
inactive: UACC-257 > 10 µM | K562 > 10 µM | A498 > 10 µM | PC-3 > 10 µM | SNB-19 > 10 µM | Hs-578T > 10 µM | MDA-MB-435 > 10 µM | NCI-H23 > 10 µM | OVCAR-3 > 10 µM | DU-145 > 10 µM | A549 > 10 µM | HT-29 > 10 µM | OVCAR-4 > 10 µM | NCI-H522 > 10 µM | IGROV-1 > 10 µM | NCI-H460 > 10 µM | COLO 205 > 10 µM | HCC 2998 > 10 µM
